# In PubChem BioAssay (NCI):
#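 Test compounds were applied to cells in 96-well plates for 48 hours at 5 doses. GI50 marks 50% less growth. Definition used: TGI = concentration required for complete inhibition of growth.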
# What was measured:
# Test in all cases: NCI-60 cell line screen, 48 h
# HT29 colon = tested on: HT29 colon
# UACC-257 melanoma = tested on: UACC-257 melanoma
# NCI/ADR-RES ovarian = tested on: NCI/ADR-RES ovarian
# COLO 205 colon = tested on: COLO 205 colon
# UO-31 renal = tested on: UO-31 renal
# CAKI-1 renal = tested on: CAKI-1 renal
# MDA-MB-435 = tested on: MDA-MB-435
# SW-620 colon = tested on: SW-620 colon
# DLD-1 colon = tested on: DLD-1 colon
Compound,GI50 (HT29 colon) [µM],TGI (HT29 colon) [µM],GI50 (UACC-257 melanoma) [µM],TGI (UACC-257 melanoma) [µM],GI50 (NCI/ADR-RES ovarian) [µM],TGI (NCI/ADR-RES ovarian) [µM],GI50 (COLO 205 colon) [µM],TGI (COLO 205 colon) [µM],GI50 (UO-31 renal) [µM],TGI (UO-31 renal) [µM],GI50 (CAKI-1 renal) [µM],TGI (CAKI-1 renal) [µM],GI50 (MDA-MB-435) [µM],TGI (MDA-MB-435) [µM],GI50 (SW-620 colon) [µM],TGI (SW-620 colon) [µM],GI50 (DLD-1 colon) [µM],TGI (DLD-1 colon) [µM]
Cc1nn(-c2ccc(Cl)cc2)c2nc3c(nc12)C(=O)C(=O)c1ccccc1-3,2.01,3.99,3.24,11.9,3.92,> 100,2.03,4.86,1.82,7.14,7.93,> 100,6.31,> 100,3.25,20.9,–,–
CN(C)CC1CCC2=C(C1=O)C(c1ccc(Cl)c(Cl)c1)C1=C(CCC(CN(C)C)C1=O)O2 (stereo unspecified),8.57,22.4,5.14,10.8,19.4,57.4,5.48,19.6,2.78,7.17,1.58,3.03,4.81,17.5,2.47,16.9,–,–
CC(=O)[CH-]C(=O)c1ccccc1.CC(=O)[CH-]C(=O)c1ccccc1.CC(=O)[CH-]C(=O)c1ccccc1.[In+3],31.9,> 100,46.2,> 100,–,–,31.9,85.4,29.7,94,99.7,> 100,–,–,53.1,> 100,24.4,> 100
COC(=N)c1c(N)[n+]([O-])c2ccc(F)cc2[n+]1[O-],> 100,> 100,> 100,> 100,> 100,> 100,61.7,> 100,> 100,> 100,> 100,> 100,> 100,> 100,> 100,> 100,–,–
N#CSCc1ccc(Cl)c(CSC#N)c1,0.0423,> 37.6,15,50.2,1.9,> 60.9,0.0513,11.4,0.154,12.8,0.169,21.7,0.133,3.81,0.0395,15.7,–,–
C[C@]12CC[C@@H]3c4ccc(O)cc4CC[C@H]3[C@@H]1Cc1cnc(N)nc12,52.9,> 100,28.9,74.1,17.7,41.4,13.7,27.6,19,43.7,23.8,49.8,16.2,43.5,22.4,45.9,–,–
COc1ccc(/C=C(\C(=O)NCc2cccnc2)S(=O)(=O)c2ccccc2)cc1OC,3.45,14.8,3.03,13.9,18.2,> 100,2.77,6.63,2.69,11.3,3.29,11.7,2.74,10.9,2.95,10.9,–,–
COc1ccc(CC(=O)c2ccc(O)cc2O)cc1,> 100,> 100,> 100,> 100,58.8,> 100,> 100,> 100,15.4,> 100,59.6,> 100,> 100,> 100,> 100,> 100,–,–
O=S(=O)(c1cccc2c(I)cccc12)N1CCCNCC1,20.8,55.3,23.1,43.2,20.2,43.5,29.1,> 100,15.6,34,19.2,37.8,17.7,35.6,17.1,51.4,–,–
Cc1[nH]c(=O)nc(Nc2ccc(Cl)cc2)c1C(=O)N1CCN(CCO)CC1,> 100,> 100,> 100,> 100,> 100,> 100,> 100,> 100,> 100,> 100,> 100,> 100,> 100,> 100,> 100,> 100,–,–
COc1cc([N+](=O)[O-])c(OC)cc1-c1nc2sccn2c1/C=N/N=C(N)N,82.1,> 100,21.5,54.2,51.1,> 100,66,> 100,42.5,> 100,22.9,66.3,15.5,52.3,15,> 100,–,–
CC(=O)[O][Sn]([CH2]c1ccccc1)([CH2]c1ccccc1)[CH2]c1ccccc1,4.72,> 8.87,> 10,> 10,> 10,> 10,> 5.6,> 6.79,> 8.79,> 10,> 10,> 10,> 7,> 10,> 8.82,> 10,–,–
O=C(NC(=Nc1ccccc1)SCCSC(=Nc1ccccc1)NC(=O)c1cccs1)c1cccs1,–,> 100,–,> 100,–,–,–,> 100,–,92.8,–,> 100,–,–,–,> 100,–,> 100
O1[As]2O[As]3O[As]1O[As](O2)O3,0.876,4.67,1.5,3.24,1.43,5.11,1.67,4.5,1.22,2.84,0.567,3.13,1.64,7.69,0.577,4.54,–,–
CN1CCc2[nH]nc(-c3n[nH]c4c3CN(C)CC4)c2C1,–,> 100,–,> 100,–,> 100,–,> 100,–,> 100,–,> 100,–,> 100,–,> 100,–,–
